Laboratory results published in ChEMBL document CHEMBL4507318, “Data for DCP probe BAY-985” (2021).

Tests used:
[1] = target: Protein-tyrosine kinase 2-beta (Homo sapiens) (UniProt Q14289)
[2] = target: STE20-like serine/threonine-protein kinase (Homo sapiens) (UniProt Q9H2G2)
[3] = target: Mitogen-activated protein kinase 1 (Homo sapiens) (UniProt P28482)
[4] = target: Macrophage colony-stimulating factor 1 receptor (Homo sapiens) (UniProt P07333)
[5] = target: Fibroblast growth factor receptor 3 (Homo sapiens) (UniProt P22607)
[6] = target: Dual specificity mitogen-activated protein kinase kinase 3 (Homo sapiens) (UniProt P46734)
[7] = target: Testis-specific serine/threonine-protein kinase 1 (Homo sapiens) (UniProt Q9BXA7)
[8] = target: Phosphatidylinositol 5-phosphate 4-kinase type-2 beta (Homo sapiens) (UniProt P78356)
[9] = target: Calcium/calmodulin-dependent protein kinase type 1G (Homo sapiens) (UniProt Q96NX5)
[10] = target: Dual specificity mitogen-activated protein kinase kinase 2 (Homo sapiens) (UniProt P36507)
[11] = system: Hepatocyte growth factor receptor (Homo sapiens), P08581 [Y1235D]
[12] = target: Platelet-derived growth factor receptor beta (Homo sapiens) (UniProt P09619)
[13] = target: Non-receptor tyrosine-protein kinase TYK2 (Homo sapiens) (UniProt P29597)
[14] = target: Protein kinase C eta type (Homo sapiens) (UniProt P24723)
[15] = system: Tyrosine-protein kinase ABL1 (Homo sapiens), P00519 [Q252H]
[16] = target: Cyclin-dependent kinase 13 (Homo sapiens) (UniProt Q14004)
[17] = target: Tyrosine-protein kinase Yes (Homo sapiens) (UniProt P07947)
[18] = target: Serine/threonine-protein kinase 36 (Homo sapiens) (UniProt Q9NRP7)
[19] = system: Epidermal growth factor receptor (Homo sapiens), P00533 [G719C]
[20] = target: Ribosomal protein S6 kinase alpha-5 (Homo sapiens) (UniProt O75582)
[21] = target: Serine/threonine-protein kinase MARK1 (Homo sapiens) (UniProt Q9P0L2)
[22] = target: Ribosomal protein S6 kinase beta-1 (Homo sapiens) (UniProt P23443)
[23] = target: Myotonin-protein kinase (Homo sapiens) (UniProt Q09013)
[24] = target: BDNF/NT-3 growth factors receptor (Homo sapiens) (UniProt Q16620)
[25] = target: 5-hydroxytryptamine receptor 2B (Homo sapiens, UniProt P41595); details: Compound concentration 10.0 uM
[26] = target: Ribosomal protein S6 kinase alpha-6 (Homo sapiens) (UniProt Q9UK32)
[27] = system: ALK tyrosine kinase receptor (Homo sapiens), Q9UM73 [L1196M]
[28] = target: Activated CDC42 kinase 1 (Homo sapiens) (UniProt Q07912)
[29] = target: Ribosomal protein S6 kinase alpha-2 (Homo sapiens) (UniProt Q15349)
[30] = system: Tyrosine-protein kinase ABL1 (Homo sapiens), P00519 [Y253F]
[31] = target: Mitogen-activated protein kinase kinase kinase 12 (Homo sapiens) (UniProt Q12852)
[32] = target: MAP kinase-interacting serine/threonine-protein kinase 2 (Homo sapiens) (UniProt Q9HBH9)
[33] = target: Citron Rho-interacting kinase (Homo sapiens) (UniProt O14578)
[34] = target: AP2-associated protein kinase 1 (Homo sapiens) (UniProt Q2M2I8)
[35] = target: Phosphorylase b kinase regulatory subunit alpha, liver isoform (Homo sapiens) (UniProt P46019)
[36] = target: Wee1-like protein kinase (Homo sapiens) (UniProt P30291)
[37] = target: Tyrosine-protein kinase JAK1 (Homo sapiens) (UniProt P23458)
[38] = target: Histamine H1 receptor (Homo sapiens) (UniProt P35367); details: Compound concentration 10.0 uM
[39] = target: Calcium/calmodulin-dependent protein kinase type IV (Homo sapiens) (UniProt Q16566)
[40] = target: Serine/threonine-protein kinase MARK2 (Homo sapiens) (UniProt Q7KZI7)
[41] = target: Leukocyte tyrosine kinase receptor (Homo sapiens) (UniProt P29376)
[42] = target: Serine/threonine-protein kinase Nek2 (Homo sapiens) (UniProt P51955)
[43] = target: BMP-2-inducible protein kinase (Homo sapiens) (UniProt Q9NSY1)
[44] = target: Mitogen-activated protein kinase kinase kinase kinase 5 (Homo sapiens) (UniProt Q9Y4K4)
[45] = target: SNF-related serine/threonine-protein kinase (Homo sapiens) (UniProt Q9NRH2)
[46] = Compound concentration 100.0 nM
[47] = Compound concentration 1000.0 nM

Chain of Serine/threonine-protein kinase MARK2 (Homo sapiens) (Q7KZI7 whole entry): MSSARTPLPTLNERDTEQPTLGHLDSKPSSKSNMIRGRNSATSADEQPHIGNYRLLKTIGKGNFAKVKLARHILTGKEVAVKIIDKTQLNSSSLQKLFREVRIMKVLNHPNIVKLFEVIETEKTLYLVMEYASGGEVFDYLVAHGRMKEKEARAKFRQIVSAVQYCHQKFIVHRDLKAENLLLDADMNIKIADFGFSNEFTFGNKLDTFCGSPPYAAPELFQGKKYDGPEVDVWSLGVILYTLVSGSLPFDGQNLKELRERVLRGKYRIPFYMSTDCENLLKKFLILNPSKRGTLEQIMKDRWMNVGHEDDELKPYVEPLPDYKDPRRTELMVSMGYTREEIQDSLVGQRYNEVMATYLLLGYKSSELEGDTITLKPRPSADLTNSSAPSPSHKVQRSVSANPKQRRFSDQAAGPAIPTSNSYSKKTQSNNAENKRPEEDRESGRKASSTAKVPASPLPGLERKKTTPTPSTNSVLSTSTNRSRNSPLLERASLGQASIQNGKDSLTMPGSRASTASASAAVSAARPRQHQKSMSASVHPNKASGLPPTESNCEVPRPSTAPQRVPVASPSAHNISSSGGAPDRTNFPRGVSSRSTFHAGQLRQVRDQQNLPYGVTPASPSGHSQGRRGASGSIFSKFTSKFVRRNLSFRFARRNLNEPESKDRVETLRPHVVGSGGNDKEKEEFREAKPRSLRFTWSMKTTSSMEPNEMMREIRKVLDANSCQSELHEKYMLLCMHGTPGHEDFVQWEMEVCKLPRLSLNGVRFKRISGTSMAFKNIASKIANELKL
Chain of Dual specificity mitogen-activated protein kinase kinase 2 (Homo sapiens) (P36507 whole entry): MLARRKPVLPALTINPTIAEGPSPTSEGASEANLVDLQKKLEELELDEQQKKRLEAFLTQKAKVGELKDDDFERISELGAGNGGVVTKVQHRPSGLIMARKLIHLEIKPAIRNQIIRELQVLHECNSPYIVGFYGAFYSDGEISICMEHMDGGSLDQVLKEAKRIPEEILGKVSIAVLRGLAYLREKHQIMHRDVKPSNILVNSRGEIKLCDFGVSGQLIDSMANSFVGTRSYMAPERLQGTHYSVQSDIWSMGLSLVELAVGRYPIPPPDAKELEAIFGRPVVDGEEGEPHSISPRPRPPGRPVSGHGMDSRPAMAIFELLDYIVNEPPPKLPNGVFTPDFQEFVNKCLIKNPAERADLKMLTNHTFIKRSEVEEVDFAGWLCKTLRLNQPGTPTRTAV
Chain of STE20-like serine/threonine-protein kinase (Homo sapiens) (Q9H2G2 whole entry, looked up): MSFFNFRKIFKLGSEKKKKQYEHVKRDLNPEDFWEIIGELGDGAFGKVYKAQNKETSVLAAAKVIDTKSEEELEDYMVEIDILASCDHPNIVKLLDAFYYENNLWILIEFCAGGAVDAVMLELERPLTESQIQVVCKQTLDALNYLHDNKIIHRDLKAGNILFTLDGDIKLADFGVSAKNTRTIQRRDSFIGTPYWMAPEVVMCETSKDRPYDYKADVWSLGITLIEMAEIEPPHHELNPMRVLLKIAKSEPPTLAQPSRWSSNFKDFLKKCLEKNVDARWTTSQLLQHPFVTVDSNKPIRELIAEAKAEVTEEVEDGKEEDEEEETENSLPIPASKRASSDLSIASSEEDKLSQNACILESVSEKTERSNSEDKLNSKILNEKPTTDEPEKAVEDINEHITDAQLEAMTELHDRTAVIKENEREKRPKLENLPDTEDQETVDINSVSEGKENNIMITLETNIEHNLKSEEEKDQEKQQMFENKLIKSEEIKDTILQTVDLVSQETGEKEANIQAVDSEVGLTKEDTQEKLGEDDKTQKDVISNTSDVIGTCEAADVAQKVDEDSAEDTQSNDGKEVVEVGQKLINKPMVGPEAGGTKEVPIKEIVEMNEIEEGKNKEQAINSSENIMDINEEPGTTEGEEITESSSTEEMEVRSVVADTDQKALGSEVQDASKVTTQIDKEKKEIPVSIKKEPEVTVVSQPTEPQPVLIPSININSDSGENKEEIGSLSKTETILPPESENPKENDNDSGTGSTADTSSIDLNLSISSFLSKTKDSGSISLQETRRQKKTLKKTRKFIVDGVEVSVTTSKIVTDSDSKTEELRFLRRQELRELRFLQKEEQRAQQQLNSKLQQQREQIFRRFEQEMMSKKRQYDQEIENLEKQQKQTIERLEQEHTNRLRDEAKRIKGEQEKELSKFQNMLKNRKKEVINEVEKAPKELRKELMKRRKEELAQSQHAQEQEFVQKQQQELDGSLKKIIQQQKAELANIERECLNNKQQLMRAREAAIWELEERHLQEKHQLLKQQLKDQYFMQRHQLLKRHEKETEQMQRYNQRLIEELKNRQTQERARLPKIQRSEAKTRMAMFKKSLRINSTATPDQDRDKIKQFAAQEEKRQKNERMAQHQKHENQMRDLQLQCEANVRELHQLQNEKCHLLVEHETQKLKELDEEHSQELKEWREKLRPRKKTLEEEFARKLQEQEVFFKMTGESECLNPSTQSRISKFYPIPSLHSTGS
Chain of Fibroblast growth factor receptor 3 (Homo sapiens) (P22607 23-806 limits assumed): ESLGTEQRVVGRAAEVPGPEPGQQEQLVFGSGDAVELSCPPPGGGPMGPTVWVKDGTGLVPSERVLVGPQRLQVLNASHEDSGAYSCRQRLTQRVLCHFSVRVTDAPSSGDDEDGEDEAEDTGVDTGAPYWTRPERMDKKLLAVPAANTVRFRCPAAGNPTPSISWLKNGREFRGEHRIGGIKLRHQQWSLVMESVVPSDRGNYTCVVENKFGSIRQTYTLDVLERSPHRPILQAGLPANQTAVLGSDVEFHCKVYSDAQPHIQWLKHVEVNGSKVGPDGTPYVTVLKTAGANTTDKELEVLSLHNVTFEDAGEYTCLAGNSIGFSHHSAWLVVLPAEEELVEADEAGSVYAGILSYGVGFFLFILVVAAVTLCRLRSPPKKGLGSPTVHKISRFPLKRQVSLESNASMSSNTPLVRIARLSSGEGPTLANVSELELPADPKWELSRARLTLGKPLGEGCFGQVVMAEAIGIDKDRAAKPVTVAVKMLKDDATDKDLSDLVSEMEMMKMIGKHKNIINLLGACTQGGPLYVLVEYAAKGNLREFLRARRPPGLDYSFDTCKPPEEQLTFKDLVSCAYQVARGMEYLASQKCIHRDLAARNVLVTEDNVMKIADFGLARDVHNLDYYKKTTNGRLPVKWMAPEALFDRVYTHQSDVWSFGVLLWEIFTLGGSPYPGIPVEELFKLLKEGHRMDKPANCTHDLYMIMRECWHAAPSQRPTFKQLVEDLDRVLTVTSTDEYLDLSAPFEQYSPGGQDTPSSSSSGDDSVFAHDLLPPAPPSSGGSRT
Chain of Serine/threonine-protein kinase Nek2 (Homo sapiens) (P51955 whole entry): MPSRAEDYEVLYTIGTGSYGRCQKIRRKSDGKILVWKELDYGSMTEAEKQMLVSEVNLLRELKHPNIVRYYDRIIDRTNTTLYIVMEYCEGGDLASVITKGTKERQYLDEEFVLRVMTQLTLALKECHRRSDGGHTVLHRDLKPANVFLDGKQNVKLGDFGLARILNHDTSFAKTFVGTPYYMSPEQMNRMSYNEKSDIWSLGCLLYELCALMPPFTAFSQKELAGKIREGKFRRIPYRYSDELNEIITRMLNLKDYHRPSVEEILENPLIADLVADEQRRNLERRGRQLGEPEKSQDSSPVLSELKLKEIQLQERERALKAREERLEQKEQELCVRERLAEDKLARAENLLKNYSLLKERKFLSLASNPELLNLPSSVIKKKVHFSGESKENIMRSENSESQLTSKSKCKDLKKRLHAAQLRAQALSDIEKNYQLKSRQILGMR
Chain of Calcium/calmodulin-dependent protein kinase type IV (Homo sapiens) (Q16566 whole entry): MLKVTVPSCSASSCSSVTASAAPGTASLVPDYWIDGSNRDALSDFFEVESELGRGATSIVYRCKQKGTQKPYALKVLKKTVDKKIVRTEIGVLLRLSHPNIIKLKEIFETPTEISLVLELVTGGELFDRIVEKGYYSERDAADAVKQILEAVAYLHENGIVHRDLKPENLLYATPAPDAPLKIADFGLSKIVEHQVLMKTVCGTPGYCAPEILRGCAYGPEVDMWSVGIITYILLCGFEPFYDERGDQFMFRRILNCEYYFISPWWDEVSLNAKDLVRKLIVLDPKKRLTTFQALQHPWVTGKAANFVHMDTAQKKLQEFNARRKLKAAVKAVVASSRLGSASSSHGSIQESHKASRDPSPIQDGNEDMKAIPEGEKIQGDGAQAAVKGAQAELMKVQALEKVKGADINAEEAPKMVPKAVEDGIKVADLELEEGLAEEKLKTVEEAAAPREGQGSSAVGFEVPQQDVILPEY
Chain of Ribosomal protein S6 kinase alpha-6 (Homo sapiens) (Q9UK32 whole entry): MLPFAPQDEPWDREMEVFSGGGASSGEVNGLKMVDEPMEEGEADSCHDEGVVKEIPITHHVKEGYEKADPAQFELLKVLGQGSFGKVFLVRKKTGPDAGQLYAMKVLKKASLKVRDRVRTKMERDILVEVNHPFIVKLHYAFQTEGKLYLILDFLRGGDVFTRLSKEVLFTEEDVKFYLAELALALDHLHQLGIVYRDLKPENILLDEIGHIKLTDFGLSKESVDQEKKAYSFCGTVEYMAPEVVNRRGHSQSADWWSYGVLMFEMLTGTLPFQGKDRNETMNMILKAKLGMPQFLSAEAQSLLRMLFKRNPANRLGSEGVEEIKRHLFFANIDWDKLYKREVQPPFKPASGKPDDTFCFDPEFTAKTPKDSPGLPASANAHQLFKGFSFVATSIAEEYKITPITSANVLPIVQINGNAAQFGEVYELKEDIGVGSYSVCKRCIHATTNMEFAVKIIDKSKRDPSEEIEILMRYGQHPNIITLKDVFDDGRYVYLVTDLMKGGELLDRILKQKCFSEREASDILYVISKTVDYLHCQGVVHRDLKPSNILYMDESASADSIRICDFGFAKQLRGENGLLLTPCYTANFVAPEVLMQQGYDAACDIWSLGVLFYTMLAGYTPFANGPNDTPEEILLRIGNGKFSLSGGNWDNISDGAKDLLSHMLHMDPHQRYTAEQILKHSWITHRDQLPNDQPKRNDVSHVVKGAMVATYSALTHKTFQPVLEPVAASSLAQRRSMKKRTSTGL

C[C@H](c1ccnc(Nc2nc3ccc(-c4cc(N(C)C)ncn4)cc3[nH]2)c1)N1CCN(C(=O)CC(F)(F)F)CC1 [BAY-985]
residual activity [1, 46]: 91%
residual activity [2, 46]: 99%
residual activity [3, 46]: 78%
residual activity [4, 46]: 100%
residual activity [5, 46]: 100%
residual activity [6, 46]: 97%
residual activity [7, 46]: 100%
residual activity [8, 46]: 75%
residual activity [9, 46]: 76%
residual activity [10, 46]: 100%
residual activity [11, 46]: 100%
residual activity [12, 46]: 82%
residual activity [13, 46]: 100%
residual activity [14, 46]: 84%
residual activity [15, 46]: 94%
residual activity [16, 46]: 100%
residual activity [17, 46]: 92%
residual activity [18, 46]: 97%
residual activity [19, 46]: 84%
residual activity [20, 46]: 88%
residual activity [21, 46]: 100%
residual activity [22, 46]: 100%
residual activity [23, 46]: 100%
residual activity [24, 46]: 100%
inhibition [25]: 60%
residual activity [26, 46]: 56%
residual activity [27, 46]: 100%
residual activity [28, 46]: 100%
residual activity [29, 46]: 89%
residual activity [30, 46]: 91%
residual activity [31, 46]: 100%
residual activity [32, 46]: 86%
residual activity [33, 46]: 78%
residual activity [34, 46]: 60%
residual activity [35, 46]: 81%
residual activity [36, 46]: 96%
residual activity [37, 46]: 100%
inhibition [38]: 35%
residual activity [39, 46]: 100%
residual activity [40, 46]: 100%
residual activity [41, 46]: 100%
residual activity [42, 46]: 100%
residual activity [43, 46]: 100%
residual activity [44, 46]: 96%
residual activity [45, 46]: 100%

CN(C)c1ncnc(-c2ccc3nc(Nc4cc(CN5CCN(C(=O)CC(F)(F)F)CC5)ccn4)[nH]c3c2)c1Cl [BAY-440]
residual activity [1, 47]: 85%
residual activity [2, 47]: 100%
residual activity [3, 47]: 100%
residual activity [4, 47]: 100%
residual activity [5, 47]: 100%
residual activity [6, 47]: 73%
residual activity [7, 47]: 100%
residual activity [8, 47]: 52%
residual activity [9, 47]: 100%
residual activity [10, 47]: 74%
residual activity [11, 47]: 68%
residual activity [12, 47]: 100%
residual activity [13, 47]: 51%
residual activity [14, 47]: 100%
residual activity [15, 47]: 22%
residual activity [16, 47]: 84%
residual activity [17, 47]: 76%
residual activity [18, 47]: 98%
residual activity [19, 47]: 88%
residual activity [20, 47]: 100%
residual activity [21, 47]: 100%
residual activity [22, 47]: 92%
residual activity [23, 47]: 91%
residual activity [24, 47]: 63%
inhibition [25]: 39%
residual activity [26, 47]: 81%
residual activity [27, 47]: 79%
residual activity [28, 47]: 96%
residual activity [29, 47]: 100%
residual activity [30, 47]: 37%
residual activity [31, 47]: 64%
residual activity [32, 47]: 37%
residual activity [33, 47]: 100%
residual activity [34, 47]: 85%
residual activity [35, 47]: 100%
residual activity [36, 47]: 100%
residual activity [37, 47]: 68%
inhibition [38]: 26.4%
residual activity [39, 47]: 89%
residual activity [40, 47]: 68%
residual activity [41, 47]: 88%
residual activity [42, 47]: 86%
residual activity [43, 47]: 100%
residual activity [44, 47]: 100%
residual activity [45, 47]: 100%
